Data published in the supplement of paper PMC10307832.

Experiments:
Assay in all cases: relative viability (nuclei count vs DMSO), 5 days (fraction); higher = more cells survive
NCI-H2009 = tested on: NCI-H2009
Outline: (§1)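 After 5 days of treatment, lung cancer cells in 1536-well plates were fixed and stained in a single step (final 0.05% Triton X-100, 1% formaldehyde, 1 ug/ml Hoechst) and their nuclei counted on 4× images. Treatment had been applied by pin tool the day after seeding as one drug alone or as a fixed anchor-drug dose with five library-drug doses (not always all listed) in √10 steps. Relative viability is the nuclei count of treated wells divided by that of vehicle wells, and values are medians of duplicate plates.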

NCI-H2023 = tested on: NCI-H2023
Outline: as §1

NCI-H2405 = tested on: NCI-H2405
Outline: as §1

NCI-H3122 = tested on: NCI-H3122
Outline: as §1

NCI-H441 = tested on: NCI-H441
Outline: as §1

NCI-H460 = tested on: NCI-H460
Outline: as §1

NCI-H596 = tested on: NCI-H596
Outline: as §1

NCI-H650 = tested on: NCI-H650
Outline: as §1

PC-14 = tested on: PC-14
Outline: as §1

PC-3 [JPC-3] = tested on: PC-3 [JPC-3]
Outline: as §1

SK-LU-1 = tested on: SK-LU-1
Outline: as §1

UMC-11 = tested on: UMC-11
Outline: as §1

O=C(O)CCCCC(CCSCc1ccccc1)SCc1ccccc1 (configuration not stated) [CPI-613] + COc1cc2c(Oc3ccc(NC(=O)C4(C(=O)Nc5ccc(F)cc5)CC4)cc3F)ccnc2cc1OCCCN1CCOCC1 [Foretinib] (partner 0.25 µM)
relative viability (NCI-H2009; first compound 158.11 µM): 0.221
relative viability (NCI-H2009; first compound 500 µM): 0.019
relative viability (NCI-H2023; first compound 5 µM): 0.704
relative viability (NCI-H2023; first compound 15.81 µM): 0.719
relative viability (NCI-H2023; first compound 50 µM): 0.875
relative viability (NCI-H2023; first compound 158.11 µM): 0.0718
relative viability (NCI-H2023; first compound 500 µM): 0.0092
relative viability (NCI-H2405; first compound 5 µM): 1.08
relative viability (NCI-H2405; first compound 15.81 µM): 1.03
relative viability (NCI-H2405; first compound 50 µM): 0.995
relative viability (NCI-H2405; first compound 158.11 µM): 0.93
relative viability (NCI-H2405; first compound 500 µM): 0.876
relative viability (NCI-H3122; first compound 5 µM): 0.989
relative viability (NCI-H3122; first compound 15.81 µM): 0.895
relative viability (NCI-H3122; first compound 50 µM): 0.971
relative viability (NCI-H3122; first compound 158.11 µM): 0.858
relative viability (NCI-H3122; first compound 500 µM): 0.0742
relative viability (NCI-H441; first compound 5 µM): 0.962
relative viability (NCI-H441; first compound 15.81 µM): 0.948
relative viability (NCI-H441; first compound 50 µM): 0.937
relative viability (NCI-H441; first compound 158.11 µM): 0.271
relative viability (NCI-H441; first compound 500 µM): 0.076
relative viability (NCI-H460; first compound 5 µM): 0.979
relative viability (NCI-H460; first compound 15.81 µM): 0.978
relative viability (NCI-H460; first compound 50 µM): 1.01
relative viability (NCI-H460; first compound 158.11 µM): 0.479
relative viability (NCI-H460; first compound 500 µM): 0.0276
relative viability (NCI-H596; first compound 5 µM): 0.862
relative viability (NCI-H596; first compound 15.81 µM): 0.969
relative viability (NCI-H596; first compound 50 µM): 0.813
relative viability (NCI-H596; first compound 158.11 µM): 0.592
relative viability (NCI-H596; first compound 500 µM): 0.0375
relative viability (NCI-H650; first compound 5 µM): 0.947
relative viability (NCI-H650; first compound 15.81 µM): 1
relative viability (NCI-H650; first compound 50 µM): 0.979
relative viability (NCI-H650; first compound 158.11 µM): 0.836
relative viability (NCI-H650; first compound 500 µM): 0.806
relative viability (PC-14; first compound 5 µM): 0.953
relative viability (PC-14; first compound 15.81 µM): 0.862
relative viability (PC-14; first compound 50 µM): 0.852
relative viability (PC-14; first compound 158.11 µM): 0.845
relative viability (PC-14; first compound 500 µM): 0.991
relative viability (PC-3 [JPC-3]; first compound 5 µM): 0.973
relative viability (PC-3 [JPC-3]; first compound 15.81 µM): 0.899
relative viability (PC-3 [JPC-3]; first compound 50 µM): 0.916
relative viability (PC-3 [JPC-3]; first compound 158.11 µM): 0.163
relative viability (PC-3 [JPC-3]; first compound 500 µM): 0.139
relative viability (SK-LU-1; first compound 5 µM): 0.875
relative viability (SK-LU-1; first compound 15.81 µM): 0.754
relative viability (SK-LU-1; first compound 50 µM): 0.626
relative viability (SK-LU-1; first compound 158.11 µM): 0.282
relative viability (SK-LU-1; first compound 500 µM): 0.092
relative viability (UMC-11; first compound 5 µM): 0.992
relative viability (UMC-11; first compound 15.81 µM): 1.04
relative viability (UMC-11; first compound 50 µM): 0.995
relative viability (UMC-11; first compound 158.11 µM): 0.169
relative viability (UMC-11; first compound 500 µM): 0.131
